Ends that are not written are not given here.
Legend:
[1] = Local and systemic toxicity (NCI CTCAE v4.03) of E39+GM-CSF vaccination; assay type: in vivo, human
Description: Standard local and systemic toxicities were collected and graded per the National Cancer Institute Common Terminology Criteria for Adverse Events, v4.03 toxicity scale. For the vaccine series (one vaccine/month for six months), patients were monitored closely for one hour after vaccine inoculation with questioning, serial exams and vital signs every 15 minutes to observe for a hypersensitivity reaction. Systemic toxicity and inoculation site local reactions were also determined after 48-72 hours.

[2] = tested on: tumor-associated lymphocyte (TAL); details: previous studies (Peoples et al. 1998); cited from earlier work
[3] = Local reactions (LR) 48-72 hours after booster; details: 500 mcg peptide + 250 mcg GM-CSF
Description: Therefore, to assess the use of the attenuated E39′ peptide as a booster, E39-vaccinated patients described in Example 1 were randomized to receive either E39 or E39′ as a booster to determine the effect on long-term E39-specific immunity. Patients in the VG received six intradermal E39 injections as described in Example 1 as a primary vaccination schedule (PVS). At six months (B1) and at twelve months (B2) after completion of the PVS, patients received either 500 mcg of E39′ and 250 mcg GM-CSF or 500 mcg E39 and 250 mcg of GM-CSF as a booster.
Local reactions (LR) were recorded 48-72 hours after each booster. Immune response was determined by measurement of E39 specific CTL levels using a Dextramer reagents in accordance with the manufacturer's instructions (Immudex Limited, Copenhagen, Denmark) as previously described (e.g., Tario et al. Cytometry B Clin. Cytom. 2015; 88B:6-20; Baba J. Transl Med. 2010; 8:84), at RO (baseline pre-vaccination), RC1 (1 month after completion of PVS), RC6 (6 months after completion of PVS and before booster), RC7 (1 month after booster) and RC12 (6 months after booster and 12 months after completion of PVS).

EIWTHSYKV [E39, EIWTHSYKV]
tolerability of the vaccine ([1]; E39+GM-CSF, disease-free endometrial and ovarian cancer patients): well tolerated
Local and systemic toxicities ([1]; in vivo): mild
patients experiencing grade 3 toxicity ([1]; in vivo): 1 patient

E41: FRα-derived immunogenic peptide (FRα 245-253) of previous studies (LLSLALMLL; UniProt P15328 245-253, looked up, fragment)
effect on TAL proliferation and anti-tumor function [2]: capable of enhancing tumor-associated lymphocyte (TAL) proliferation and anti-tumor function

EIWTFSTKV [E39′, EIWTFSTKV]
average LR ([3]; B1 booster (6 months after PVS)): 79.7±14.0 mm
average LR ([3]; B2 booster (12 months after PVS)): 74.1±11.5 mm

Source: US11338025B2, “Vaccine therapy for treatment of endometrial and ovarian cancer” (The Henry M. Jackson Foundation for the Advancement of …, priority 2016, dated 2022)
